One experiment addresses T1, EGFR^WT kinase (Homo sapiens, UniProt P00533).
T1 construct: purchased Carna Biosciences 08-115
Nature of the experiment: EGFR^WT kinase assay (ULight peptide / Eu-PT66 antibody detection). The format is biochemical. The source says:
(§1) Reagents and consumables: ULight™-labeled Ploy GT Peptide (Perkin Elmer, Cat. No. TRF-0100-M); ULight™-labeled JAK-1 (Try1023) Peptide (Perkin Elmer, Cat. No. TRF-0121-M); Eu-W1024-labeled Anti-Phosphotyrosine Antibody (PT66) (Perkin Elmer, Cat. No. AD0068); 10×Detection Buffer (Perkin Elmer, Cat. No. CR97-100); HER2 Kinase (Carna Biosciences, Cat. No. 08-016); EGFR kinase (Carna Biosciences, Cat. No. 08-115); HEPES (GIBCO, Cat. No. 15630-080); EGTA (Sigma, Cat. No. 03777-10G); EDTA (Sigma, Cat. No. EDS-100G); MgCl2 (Sigma, Cat. No. 63069-100ML); DTT (Sigma, Cat. No. 43816-10ML); Tween-20 (Sigma, Cat. No. P7949-100ML); DMSO (Life Science, Cat. No. 0231-500ML); 384-well plates (Perkin Elmer, Cat. No. 607290); multifunctional plate reader (Perkin Elmer, Cat. No. Envision)
(§2) Preparation of compound solution: The assay compound was dissolved in DMSO to form a 10 mM stock solution. Prior to use, the compound was diluted to 0.25 mM in DMSO (100 times the final concentration of the diluent) and then subjected to a 3-fold concentration gradient dilution to obtain a total of 11 concentrations. The solution was diluted with buffer to a diluent with 4× the final concentration when the drug was added.
(§3) EGFR^WT kinase assay: buffer was prepared, and 3.48 nM 4× EGFR kinase solution, 600 μM 4× ATP solution, and 400 nM 4×ULight™-labeled JAK-1 (Try1023) Peptide substrate solution was prepared using the buffer. After the preparation was completed, the enzyme was mixed with different concentrations of compounds pre-prepared by dilution, and the mixture was left to stand at room temperature for 5 min. Each concentration was performed in duplicate. The corresponding substrate and ATP were added and the mixture was reacted at room temperature for 120 minutes (with negative and positive controls). After completion of the reaction, PT66 detection antibody was added. The mixture was incubated at room temperature for 60 minutes, and then detected by Envision.
(§4) Data Calculation: the reading of well and inhibition rate were calculated using Excel, wherein reading of well=10000*(well EU665 value)/(well EU615 value), and inhibition rate=[(reading of positive control well−reading of assay well)/(reading of positive control well−reading of negative control well)]*100%. Compound concentrations and corresponding inhibition rates were input into GraphPad Prism for processing to calculate IC50 values.

Another experiment concerns the target T2, HER2 kinase (Homo sapiens, UniProt P04626).
T2 construct: purchased Carna Biosciences 08-016
Nature of the experiment: HER2 kinase assay (ULight peptide / Eu-PT66 antibody detection). The format is biochemical.
Description: as §1, §2
as §3, with “HER2 kinase” for “EGFR^WT kinase”, “and 40” for “and 3.48”, “4× HER2” for “4× EGFR”, “solution, 40” for “solution, 600”, “4×ULight™-labeled Ploy GT” for “4×ULight™-labeled JAK-1 (Try1023)”, “solution were” for “solution was”
as §4

Another experiment deals with HCC-827 cells. The experiment in a line: Inhibition of cell proliferation, CTG method, HCC-827. The class given is cell-based. As to conditions: Homo sapiens, HCC827, 72 hours. An excerpt: (§5) The present application examined the in vitro anti-proliferative activity of the compounds of the present disclosure against in vitro cultured HCC-827, Ba/F3-EGFR-VIII and Ba/F3 EGFR D770_N771insSVD cell lines by CTG method.
(§6) Reagents and consumables: RPMI1640 (ThermoFisher, Cat. No. C11875500BT); DMEM (ThermoFisher, C11995500BT); fetal bovine serum (Hyclone, Cat. No. SV30087.03); 0.25% trypsin-EDTA (ThermoFisher, Cat. No. 25200072); penicillin-streptomycin (Hyclone, Cat. No. SV30010); DMSO (Life Science, Cat. No. 0231-500ML); CTG assay kit (Promega, Cat. No. G9243); 96-well plate (Corning, Cat. No. 3599); multifunctional plate reader (Perkin Elmer, Cat. No. Envision)
(§7) Cell lines: HCC-827 (from ATCC), Ba/F3-EGFR-VIII and Ba/F3 EGFR D770_N771insSVD (all from KYinno Biotechnology (Beijing) Co., Ltd.); all of the above cells were cultured with RPMI1640 medium containing 10% fetal bovine serum, 100 U/mL penicillin, and 100 μg/mL streptomycin in the culture process, and HCC-827 was cultured with DMEM medium containing 10% fetal bovine serum, 100 U/mL penicillin, and 100 μg/mL streptomycin.
(§8) • 1. The assay compound was dissolved with DMSO to form a stock solution and a gradient dilution was performed, followed by dilution with the corresponding medium to obtain a solution with 5-fold working concentration. • 2. Cells in logarithmic growth phase were adjusted to specific cell densities by dilution with culture medium, and 80 μL of cell suspension was added to a 96-well plate, such that plating densities of cells of HCC-827, Ba/F3-EGFR-VIII and Ba/F3 EGFR D770_N771insSVD were all 3000 cells/well. The cells of Ba/F3-EGFR-VIII and Ba/F3 EGFR D770_N771insSVD were used directly in the next step (treatment with compound), whereas the HCC-827 needed to be cultured overnight in a 37° C., 5% carbon dioxide gas incubator to adhere to the wall, and then treated with compounds. • 3. 20 μL of compound solution was added to each well of the 96-well plate that had been inoculated with cells. The highest concentration of the assayed compound was 10 μM, 4-fold serial dilution, a total of 9 concentrations, and duplicate wells. A control group without compound was also set up. • 4. The cells were cultured for another 72 hours, and then cell viability was detected by CTG assay kit. Signal values were read with a multifunctional plate reader (Perkin Elmer). GraphPad Prism software was used to create a dose-response curve and IC50 was calculated.

Experiment [1] addresses Ba/F3 EGFR D770_N771insSVD cells (Homo sapiens, UniProt P00533, DUP768-770, cells depend on it). The experiment in a line: Inhibition of cell proliferation, CTG method, Ba/F3 EGFR D770_N771insSVD. Conditions: 72 hours, read-out: Ba/F3 EGFR D770_N771insSVD IC50. The format is cell-based.
Description: as §5, §6, §7, §8

A further experiment deals with Ba/F3-EGFR-VIII cells (Homo sapiens, UniProt P00533, DELINS30-297G, cells depend on it). The experiment in a line: Inhibition of cell proliferation, CTG method, Ba/F3-EGFR-VIII. Conditions: 72 hours, read-out: Ba/F3 EGFRvIII IC50. The format is cell-based.
Description: as §5, §6, §7, §8

Sequence of Ba/F3 EGFR D770_N771insSVD cells (P00533 with tags, fused parts or gaps DUP768-770): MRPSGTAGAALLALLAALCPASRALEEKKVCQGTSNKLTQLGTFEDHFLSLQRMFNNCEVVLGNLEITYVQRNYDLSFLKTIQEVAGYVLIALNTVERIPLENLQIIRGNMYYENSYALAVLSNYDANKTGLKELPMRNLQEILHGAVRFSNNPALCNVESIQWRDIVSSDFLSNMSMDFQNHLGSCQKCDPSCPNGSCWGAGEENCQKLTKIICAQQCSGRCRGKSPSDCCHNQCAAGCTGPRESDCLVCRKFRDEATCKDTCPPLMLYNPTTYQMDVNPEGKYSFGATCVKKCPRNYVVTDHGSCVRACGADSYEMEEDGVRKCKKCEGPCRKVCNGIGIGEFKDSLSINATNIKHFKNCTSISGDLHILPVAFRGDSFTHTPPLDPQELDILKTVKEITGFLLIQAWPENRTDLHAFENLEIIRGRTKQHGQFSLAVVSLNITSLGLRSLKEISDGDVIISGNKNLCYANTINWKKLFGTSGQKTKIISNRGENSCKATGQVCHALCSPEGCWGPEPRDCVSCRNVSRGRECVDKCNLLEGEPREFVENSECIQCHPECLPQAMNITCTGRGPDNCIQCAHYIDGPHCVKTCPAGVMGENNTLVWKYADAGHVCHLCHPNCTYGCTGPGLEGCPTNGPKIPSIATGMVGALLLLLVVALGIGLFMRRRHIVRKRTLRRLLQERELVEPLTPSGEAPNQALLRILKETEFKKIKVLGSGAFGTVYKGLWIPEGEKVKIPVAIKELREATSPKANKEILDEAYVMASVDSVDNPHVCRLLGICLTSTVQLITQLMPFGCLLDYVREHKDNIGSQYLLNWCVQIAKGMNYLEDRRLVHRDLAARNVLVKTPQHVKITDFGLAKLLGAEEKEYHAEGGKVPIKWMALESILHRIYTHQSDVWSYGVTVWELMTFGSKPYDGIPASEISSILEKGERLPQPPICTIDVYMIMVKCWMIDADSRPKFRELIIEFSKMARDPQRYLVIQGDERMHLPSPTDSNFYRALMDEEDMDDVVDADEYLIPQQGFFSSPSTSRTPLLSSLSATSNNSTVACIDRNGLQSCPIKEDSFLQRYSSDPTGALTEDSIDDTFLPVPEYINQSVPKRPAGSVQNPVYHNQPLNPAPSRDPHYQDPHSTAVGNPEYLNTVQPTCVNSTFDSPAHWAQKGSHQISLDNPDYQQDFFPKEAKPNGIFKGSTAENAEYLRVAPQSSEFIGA
T1 sequence (P00533 25-1210): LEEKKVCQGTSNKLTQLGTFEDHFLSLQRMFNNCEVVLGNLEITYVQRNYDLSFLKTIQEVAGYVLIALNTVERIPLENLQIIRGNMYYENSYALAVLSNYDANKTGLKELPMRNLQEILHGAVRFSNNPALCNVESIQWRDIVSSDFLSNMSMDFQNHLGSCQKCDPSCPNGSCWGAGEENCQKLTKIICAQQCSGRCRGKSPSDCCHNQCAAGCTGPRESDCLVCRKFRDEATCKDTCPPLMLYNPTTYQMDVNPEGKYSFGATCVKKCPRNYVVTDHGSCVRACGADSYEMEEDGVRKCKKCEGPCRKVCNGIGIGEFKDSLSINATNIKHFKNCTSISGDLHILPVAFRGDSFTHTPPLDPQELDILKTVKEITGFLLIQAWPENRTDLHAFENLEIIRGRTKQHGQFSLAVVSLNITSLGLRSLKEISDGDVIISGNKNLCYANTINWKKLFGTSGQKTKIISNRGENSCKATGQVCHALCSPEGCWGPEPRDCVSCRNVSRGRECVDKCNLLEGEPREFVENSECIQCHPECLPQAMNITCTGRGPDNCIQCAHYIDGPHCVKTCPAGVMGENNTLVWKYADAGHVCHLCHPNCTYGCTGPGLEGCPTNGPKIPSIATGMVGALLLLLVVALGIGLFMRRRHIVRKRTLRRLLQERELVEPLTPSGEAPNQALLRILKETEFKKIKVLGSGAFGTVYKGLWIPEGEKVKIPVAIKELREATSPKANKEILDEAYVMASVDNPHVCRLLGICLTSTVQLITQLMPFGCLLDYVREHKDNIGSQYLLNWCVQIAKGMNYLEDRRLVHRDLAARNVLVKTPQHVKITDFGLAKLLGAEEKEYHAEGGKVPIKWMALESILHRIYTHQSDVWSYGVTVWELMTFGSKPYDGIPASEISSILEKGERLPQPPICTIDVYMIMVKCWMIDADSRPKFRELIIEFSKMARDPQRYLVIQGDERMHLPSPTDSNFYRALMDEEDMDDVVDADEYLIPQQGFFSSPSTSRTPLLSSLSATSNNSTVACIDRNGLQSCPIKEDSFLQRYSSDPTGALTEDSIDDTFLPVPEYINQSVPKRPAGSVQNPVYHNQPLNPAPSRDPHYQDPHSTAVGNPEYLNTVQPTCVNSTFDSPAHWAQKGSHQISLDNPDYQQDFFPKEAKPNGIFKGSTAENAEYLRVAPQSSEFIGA
T2 sequence (P04626 23-1255): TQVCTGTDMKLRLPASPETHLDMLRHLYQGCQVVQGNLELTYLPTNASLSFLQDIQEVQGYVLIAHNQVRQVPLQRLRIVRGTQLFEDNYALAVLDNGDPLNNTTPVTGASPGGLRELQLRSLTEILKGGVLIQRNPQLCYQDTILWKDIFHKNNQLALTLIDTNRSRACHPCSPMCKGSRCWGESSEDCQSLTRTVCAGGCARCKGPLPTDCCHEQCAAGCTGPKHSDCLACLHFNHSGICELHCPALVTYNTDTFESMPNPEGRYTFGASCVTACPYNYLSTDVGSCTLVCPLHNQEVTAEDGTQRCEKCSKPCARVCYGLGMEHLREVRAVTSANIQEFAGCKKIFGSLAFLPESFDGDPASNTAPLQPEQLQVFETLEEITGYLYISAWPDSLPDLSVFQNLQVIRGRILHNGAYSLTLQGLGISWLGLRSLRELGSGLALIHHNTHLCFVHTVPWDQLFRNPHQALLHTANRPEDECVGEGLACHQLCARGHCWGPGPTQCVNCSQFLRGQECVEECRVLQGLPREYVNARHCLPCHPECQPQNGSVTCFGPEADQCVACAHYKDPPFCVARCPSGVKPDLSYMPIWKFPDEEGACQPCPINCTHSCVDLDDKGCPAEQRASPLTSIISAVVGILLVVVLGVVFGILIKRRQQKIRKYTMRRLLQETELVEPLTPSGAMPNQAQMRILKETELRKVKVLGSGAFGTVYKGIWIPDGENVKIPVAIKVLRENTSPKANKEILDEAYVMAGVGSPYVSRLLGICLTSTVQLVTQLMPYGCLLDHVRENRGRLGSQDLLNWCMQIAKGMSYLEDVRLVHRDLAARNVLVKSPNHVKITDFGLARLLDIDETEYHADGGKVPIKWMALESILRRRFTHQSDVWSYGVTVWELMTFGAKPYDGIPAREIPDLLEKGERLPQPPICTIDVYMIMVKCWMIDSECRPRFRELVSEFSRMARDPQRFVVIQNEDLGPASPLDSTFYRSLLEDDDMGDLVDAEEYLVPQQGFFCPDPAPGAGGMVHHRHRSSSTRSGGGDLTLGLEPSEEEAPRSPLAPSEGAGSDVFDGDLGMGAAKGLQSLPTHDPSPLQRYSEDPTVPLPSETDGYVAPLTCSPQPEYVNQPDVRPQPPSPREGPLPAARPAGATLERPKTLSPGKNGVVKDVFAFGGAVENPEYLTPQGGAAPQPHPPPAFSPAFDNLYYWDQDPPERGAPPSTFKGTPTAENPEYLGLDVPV
Sequence of Ba/F3-EGFR-VIII cells (P00533 with tags, fused parts or gaps DELINS30-297G): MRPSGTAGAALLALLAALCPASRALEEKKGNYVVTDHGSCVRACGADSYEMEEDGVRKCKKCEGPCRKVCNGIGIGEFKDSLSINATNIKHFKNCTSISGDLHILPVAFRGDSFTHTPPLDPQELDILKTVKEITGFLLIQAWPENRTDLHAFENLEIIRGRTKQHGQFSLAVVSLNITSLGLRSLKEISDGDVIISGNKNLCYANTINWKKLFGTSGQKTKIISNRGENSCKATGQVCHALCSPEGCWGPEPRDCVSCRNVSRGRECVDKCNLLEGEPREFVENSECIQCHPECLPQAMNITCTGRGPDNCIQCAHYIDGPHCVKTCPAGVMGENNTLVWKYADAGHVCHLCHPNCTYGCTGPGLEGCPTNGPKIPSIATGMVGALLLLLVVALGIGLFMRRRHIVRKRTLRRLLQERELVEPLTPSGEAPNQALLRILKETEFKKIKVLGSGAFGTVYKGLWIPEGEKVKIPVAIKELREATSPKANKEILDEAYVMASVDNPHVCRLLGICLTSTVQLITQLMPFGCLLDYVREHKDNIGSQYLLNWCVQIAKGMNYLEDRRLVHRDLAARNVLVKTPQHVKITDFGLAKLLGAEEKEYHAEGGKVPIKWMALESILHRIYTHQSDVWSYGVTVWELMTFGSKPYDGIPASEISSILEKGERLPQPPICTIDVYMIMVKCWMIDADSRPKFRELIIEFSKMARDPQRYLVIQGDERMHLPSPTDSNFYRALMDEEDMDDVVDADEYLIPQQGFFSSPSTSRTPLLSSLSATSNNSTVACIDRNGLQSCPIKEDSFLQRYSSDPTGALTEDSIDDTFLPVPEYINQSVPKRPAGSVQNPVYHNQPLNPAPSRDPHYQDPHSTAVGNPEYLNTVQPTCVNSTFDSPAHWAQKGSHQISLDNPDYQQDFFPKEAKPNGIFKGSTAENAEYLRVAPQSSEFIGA

What is called IC50 is the midpoint of a concentration-inhibition curve. A high value points to a need for much substance. As to `COc1c(NC(=O)/C=C/CN(C)C)ccc2ncnc(Nc3ccc(Cl)c(Cl)c3F)c12` [Example 19, (E)-N-(4-((3,4-dichloro-2-fluorophenyl)amino)-5-methoxyquinazolin-6-yl)-4-(dimethylamino)but-2-enamide], the 50% inhibitory concentration (IC50) at EGFR^WT kinase is at most 1 nM; on HER2 kinase, 10 to 100 nM; in the experiment on HCC-827 cells, at most 5 nM. The GI50 is 50 to 500 nM in experiment [1] and 5 to 50 nM at Ba/F3-EGFR-VIII cells.

`CN(C)C/C=C/C(=O)Nc1ccc2ncnc(Nc3cccc(Cl)c3F)c2c1OCC(C)(C)O` [Example 13, (E)-N-(4-((3-chloro-2-fluorophenyl)amino)-5-(2-hydroxy-2-methylpropoxy)quinazolin-6-yl)-4-(dimethylamino)but-2-enamide]: the IC50 was at most 1 nM at EGFR^WT kinase, 10 to 100 nM against HER2 kinase and at most 5 nM in the experiment with HCC-827 cells. In addition, the GI50 in experiment [1] is 50 to 500 nM; on Ba/F3-EGFR-VIII cells, at most 5 nM.

Turning to `COc1c(NC(=O)/C=C/CNC(C)C)ccc2ncnc(Nc3cccc(Cl)c3F)c12` [Example 9, (E)-N-(4-((3-chloro-2-fluorophenyl)amino)-5-methoxyquinazolin-6-yl)-4-(isopropylamino)but-2-enamide], the figures for the IC50 against EGFR^WT kinase, against HER2 kinase and in the experiment on HCC-827 cells were at most 1 nM, 10 to 100 nM and at most 5 nM, respectively. Besides, the GI50 in experiment [1] is 5 to 50 nM; at Ba/F3-EGFR-VIII cells, at most 5 nM.

Consider `CN(C)C/C=C/C(=O)Nc1ccc2ncnc(Nc3cccc(Cl)c3F)c2c1OCCF` [Example 4, (E)-N-(4-((3-chloro-2-fluorophenyl)amino)-5-(2-fluoroethoxy)quinazolin-6-yl)-4-(dimethylamino)but-2-enamide], for which the concentration for half-maximal inhibition (IC50) on EGFR^WT kinase was at most 1 nM; at HER2 kinase it was 10 to 100 nM; in the experiment with HCC-827 cells it was at most 5 nM. Moreover, the GI50 in experiment [1] is 50 to 500 nM; on Ba/F3-EGFR-VIII cells, 5 to 50 nM.

`COc1c(NC(=O)/C=C/CN(C)C2CC2)ccc2ncnc(Nc3cccc(Cl)c3F)c12` [Example 2, (E)-N-(4-((3-chloro-2-fluorophenyl)amino)-5-methoxyquinazolin-6-yl)-4-(cyclopropyl(methyl)amino)but-2-enamide]: the values for the 50% inhibitory concentration (IC50) on EGFR^WT kinase, at HER2 kinase and with HCC-827 cells were 1 to 10 nM, 100 to 1000 nM and at most 5 nM, respectively. In addition, the results for the GI50 (in experiment [1]; on Ba/F3-EGFR-VIII cells) were 50 to 500 nM and 5 to 50 nM, respectively.

In the case of `CN(C)C/C=C/C(=O)Nc1ccc2ncnc(Nc3cccc(Cl)c3F)c2c1OCC(F)F` [Example 17, (E)-N-(4-((3-chloro-2-fluorophenyl)amino)-5-(2,2-difluoroethoxy)quinazolin-6-yl)-4-(dimethylamino)but-2-enamide], the concentration for half-maximal inhibition (IC50) at EGFR^WT kinase was at most 1 nM; against HER2 kinase it was 100 to 1000 nM; with HCC-827 cells, at most 5 nM. Moreover, the GI50 lay within 50 to 500 nM in experiment [1] and 5 to 50 nM on Ba/F3-EGFR-VIII cells.

With `COCCOc1c(NC(=O)/C=C/CN(C)C)ccc2ncnc(Nc3cccc(Cl)c3F)c12` [Example 3, (E)-N-(4-((3-chloro-2-fluorophenyl)amino)-5-(2-methoxyethoxy)quinazolin-6-yl)-4-(dimethylamino)but-2-enamide], the 50% inhibitory concentration (IC50) against EGFR^WT kinase was at most 1 nM; at HER2 kinase it was 10 to 100 nM; with HCC-827 cells, at most 5 nM. Also, the GI50 was 50 to 500 nM in experiment [1] and at most 5 nM at Ba/F3-EGFR-VIII cells.

For the compound `CN(C)C/C=C/C(=O)Nc1ccc2ncnc(Nc3cccc(Cl)c3F)c2c1OCCCF` [Example 15, (E)-N-(4-((3-chloro-2-fluorophenyl)amino)-5-(3-fluoropropoxy)quinazolin-6-yl)-4-(dimethylamino)but-2-enamide], the IC50 was at most 1 nM against EGFR^WT kinase, 10 to 100 nM against HER2 kinase and at most 5 nM in the experiment with HCC-827 cells. For the same compound, the GI50 lay in the range of 50 to 500 nM in experiment [1] and 5 to 50 nM at Ba/F3-EGFR-VIII cells.

As for `CN(C)C/C=C/C(=O)Nc1ccc2ncnc(Nc3cccc(Cl)c3F)c2c1OCCC(C)(C)O` [Example 14, (E)-N-(4-((3-chloro-2-fluorophenyl)amino)-5-(3-hydroxy-3-methylbutoxy)quinazolin-6-yl)-4-(dimethylamino)but-2-enamide], the IC50 against EGFR^WT kinase is 1 to 10 nM; on HER2 kinase it was 10 to 100 nM; with HCC-827 cells, at most 5 nM. Besides, the GI50 fell in the range of 50 to 500 nM in experiment [1] and 5 to 50 nM on Ba/F3-EGFR-VIII cells.

On to `CN(C)C/C=C/C(=O)Nc1ccc2ncnc(Nc3cccc(Cl)c3F)c2c1OCC(F)(F)F` [Example 16, (E)-N-(4-((3-chloro-2-fluorophenyl)amino)-5-(2,2,2-trifluoroethoxy)quinazolin-6-yl)-4-(dimethylamino)but-2-enamide], for which the half-maximal inhibitory concentration (IC50) against EGFR^WT kinase was at most 1 nM; against HER2 kinase, 10 to 100 nM; with HCC-827 cells, at most 5 nM. The figures for the GI50 (in experiment [1]; at Ba/F3-EGFR-VIII cells) were 50 to 500 nM and 5 to 50 nM, respectively.

For the compound `CC(C)Oc1c(NC(=O)/C=C/CN(C)C)ccc2ncnc(Nc3cccc(Cl)c3F)c12` [Example 10, (E)-N-(4-((3-chloro-2-fluorophenyl)amino)-5-isopropoxyquinazolin-6-yl)-4-(dimethylamino)but-2-enamide], the IC50 lay in the range of 1 to 10 nM on EGFR^WT kinase, 100 to 1000 nM on HER2 kinase and 5 to 50 nM with HCC-827 cells. Further, the GI50 (in experiment [1]; at Ba/F3-EGFR-VIII cells) was 50 to 500 nM throughout.

Source of the values: patent US20240400521A1, “QUINAZOLINE COMPOUND, COMPOSITION, AND APPLICATION THEREOF” (BEIJING SCITECH-MQ PHARMACEUTICALS LIMITED, priority 2021, published 2024).
